According to patent US20260139017A1, “COMPOSITIONS AND METHODS USING REELIN IN ALZHEIMER'S DISEASE” (The General Hospital Corporation, priority 2022, published 2026):
“Also recorded” adds a separate entry of the source.

Key:
[1] = biological target: T1, APOER2 (Homo sapiens, UniProt Q14114); assay: ELISA cell-free binding of RELN variants to ApoEr2
T1 construct: purchased OnGene (so in the source)
T1 sequence (Q14114 33-963): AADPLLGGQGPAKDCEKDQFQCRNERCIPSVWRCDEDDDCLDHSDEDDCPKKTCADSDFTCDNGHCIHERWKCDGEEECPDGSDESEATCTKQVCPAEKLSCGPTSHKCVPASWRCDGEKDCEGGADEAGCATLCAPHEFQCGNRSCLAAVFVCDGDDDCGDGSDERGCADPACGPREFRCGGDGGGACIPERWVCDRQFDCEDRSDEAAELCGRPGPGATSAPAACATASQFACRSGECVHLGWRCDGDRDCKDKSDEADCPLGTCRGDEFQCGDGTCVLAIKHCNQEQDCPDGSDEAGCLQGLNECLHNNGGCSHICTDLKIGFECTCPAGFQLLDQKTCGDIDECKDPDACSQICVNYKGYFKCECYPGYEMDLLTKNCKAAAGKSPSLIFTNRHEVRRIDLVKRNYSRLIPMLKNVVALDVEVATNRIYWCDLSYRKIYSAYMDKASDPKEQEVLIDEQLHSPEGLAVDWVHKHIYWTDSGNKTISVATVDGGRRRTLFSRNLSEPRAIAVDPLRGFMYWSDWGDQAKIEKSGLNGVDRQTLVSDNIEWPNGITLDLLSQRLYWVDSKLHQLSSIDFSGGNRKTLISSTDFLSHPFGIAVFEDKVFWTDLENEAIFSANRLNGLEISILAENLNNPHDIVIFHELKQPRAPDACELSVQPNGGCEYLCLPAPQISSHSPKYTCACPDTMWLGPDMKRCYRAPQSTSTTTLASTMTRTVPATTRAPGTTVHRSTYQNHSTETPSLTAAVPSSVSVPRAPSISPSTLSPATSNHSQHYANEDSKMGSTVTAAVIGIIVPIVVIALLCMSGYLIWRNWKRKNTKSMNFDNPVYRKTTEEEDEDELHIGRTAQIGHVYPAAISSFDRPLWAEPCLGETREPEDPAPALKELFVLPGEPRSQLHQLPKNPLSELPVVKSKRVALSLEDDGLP
Experimental: Enzyme-linked immunosorbent assay (ELISA) was used to quantify changes in binding of RELN variants (media-derived full-length or CTR-RELN) to either VLDLr or ApoEr2 following an optimized version of a previously published protocol (6). Briefly, ELISA strips (DY008, R&D Systems) were coated with one ng/μL (100 μL/well) of VLDLr (8444-VL, R&D) or ApoEr2 (TP320903, OnGene) receptors diluted in 25 mM Tris HCl, 140 mM NaCl, […], two mM CaCl2), pH 7.4 (TBS-C buffer). After 18 h at four ° C. incubation, plates were blocked one h with three % BSA (22070008-6, Bioworld), 0.05% Tween-20 (Sigma Aldrich) TBS-C buffer. We assessed binding via incubation with 100 μL/well of serial dilutions of recombinant RELN protein (Ser1221-Gln2666, 8546-MR-050, R&D) or RELN variants in TBS-C buffer for one hour at room temperature. For detection, we used goat anti-mouse RELN primary antibody (LS-C793521-100, LS-Bio, 1:2,000, 100 μL/well) as primary antibody for one h at R.T. and (1:10,000; 100 μL/well, donkey anti-goat IgG H&L, HRP, ab6885, Abcam) as secondary antibody for 30 min. at R.T. Between each of the previous steps, plates were washed four times with TBS-C buffer (200 μL/well). Plates were washed three times prior to initiating the colorimetric reaction (DY008, R&D Systems). Stop solution (50 μL/well, DY008, R&D Systems) was added upon five min. incubation and the absorbance of the samples was measured at 450 nm using the Synergy 2 microplate reader (BioTek Instruments). Processing and analysis of the data was done using Gen5 1.11 software and GraphPad Prism, respectively.

[2] = Heparin-sepharose affinity column chromatography, NaCl step gradient; assay type: binding
Experimental: We tested changes in binding to heparin of RELN variants chromatographically using an optimized version of a protocol previously published by our laboratory (1). Briefly, after equilibration of the heparin column (BioVision 6554-1) at R.T., columns were washed with five volumes of degassed 20 mM TRIS-HCl buffer (pH 7.5). Recombinant C-terminus RELN peptides were produced and purified by Innovagen (Sweden): (WT) […](SEQ ID NO:56), and (H3447R) […](SEQ ID NO:53). One mL of 50 μg/mL peptide (H3447 or WT, and H3447R) was recycled through the column five times and the last flow through collected for further analysis. The column was washed five times with the same buffer and the protein eluted using a 0.05 M step gradient of NaCl in 20 mM Tris-HCl (0-1M, one mL per fraction). To ensure the complete release of the protein, the column was washed with five M NaCl 20 mM Tris-HCl. Three independent experiments were conducted for C-terminus RELN WT and H3447R. All eluted fractions were analyzed spectroscopically by reading the absorbance at 280 nm using Nanodrop 2000 Spectrophotometer. Blank corrected fractions were subsequently analyzed using GraphPad Prism 8.
To assess Reelin-heparin binding affinity, Reelin variants were run on a heparin column with steps of 0.05M in a range of 0.05-1M NaCl over 20 1 mL column volumes in 20 mM Tris HCl, as described in Arboleda et. al 2019 (2). Sample fractions were eluted at an increasing NaCl step size to determine the ionic strength needed to disrupt the binding between Reelin and heparin. Therefore, the stronger the interaction, the higher concentration of salt would be needed to disrupt the bond.

[3] = Isothermal titration calorimetry (ITC) of CTR-RELN with heparin; assay type: binding; details: titrated with 5 μM heparin, vs WT

RKQNYMMNFSRQHGLRRFYNRRRRSLRRYP [CTR-RELN H3447R]
binding to APOER2 [1]: unable to bind directly
NaCl concentration of peak eluted fraction from heparin column ([2]; 0.05 M NaCl step gradient in 20 mM Tris HCl, UV 280 nm): 0.7 M NaCl
binding to and release from heparin column ([2]; affinity chromatography, NaCl gradient): bound to heparin; also recorded: required higher NaCl salt concentrations to be released
thermodynamics of heparin interaction [3]: enhanced interactions
